The values below come from US12239711B2, “Cereblon ligands and bifunctional compounds comprising the same” (Arvinas Operations, Inc., priority 2014, dated 2025).

In experiment [1] the test system is estrogen responsive element/promoter/luciferase reporter gene. Briefly: ERE Luciferase Assay in T47D-KBluc cells. The experiment is classed as cell-based, human. As to conditions: 24 hours, luciferase activity, read-out: Target Engagement IC50. As to the method:
1. ERE Luciferase Assay for Compounds in Table 5.
T47D-KBluc cells (ATCC® #CRL_2865, T47D human breast cancer cells stably transfected with estrogen responsive element/promoter/luciferase reporter gene) were seeded into 96-well white opaque plates in RPMI growth medium supplemented with 10% fetal bovine serum (FBS) and allowed to adhere overnight in a 37° C. humidified incubator. The following day, cells were treated with PROTACs in a 12-point concentration curve (top final concentration of 300 nM with subsequent concentrations being 3-fold less with 2 pM being the lowest concentration in the assay). Each PROTAC was tested independently in two experiments on 96-well plates. After 24 hours, media was removed and lysis buffer was added to the wells. Following lysis, Bright-Glo™ Luciferase Assay Substrate (Promega, Madison WI) was added and the luciferase activity was measured using a Cytation 3 plate reader (BioTek™, Winooski, VT). Each compound was assayed in duplicate and the activity was calculated as IC50 using GraphPad Prism software (San Diego, CA).

Experiment [2] addresses T1, Estrogen Receptor-Alpha (ERα) (Homo sapiens, UniProt P03372).
T1 construct: endogenous in cells; host or cells: MCF-7 (MCF7) cells
T1 sequence (P03372 1-595): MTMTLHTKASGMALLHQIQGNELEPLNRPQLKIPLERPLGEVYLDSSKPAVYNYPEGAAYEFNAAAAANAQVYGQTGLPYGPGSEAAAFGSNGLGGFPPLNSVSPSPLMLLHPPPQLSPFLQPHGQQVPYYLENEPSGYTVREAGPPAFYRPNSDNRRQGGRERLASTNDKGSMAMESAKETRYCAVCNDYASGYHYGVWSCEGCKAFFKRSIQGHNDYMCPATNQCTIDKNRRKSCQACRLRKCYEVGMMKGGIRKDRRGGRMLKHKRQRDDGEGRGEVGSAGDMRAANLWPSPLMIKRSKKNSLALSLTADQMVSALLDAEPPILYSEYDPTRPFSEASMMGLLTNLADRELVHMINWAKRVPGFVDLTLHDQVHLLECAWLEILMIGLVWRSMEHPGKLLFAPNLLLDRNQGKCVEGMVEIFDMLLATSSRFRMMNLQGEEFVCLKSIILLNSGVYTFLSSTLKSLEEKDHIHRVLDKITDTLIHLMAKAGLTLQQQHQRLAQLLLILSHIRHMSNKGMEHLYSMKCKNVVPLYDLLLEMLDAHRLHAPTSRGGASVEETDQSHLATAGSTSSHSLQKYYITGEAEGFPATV
Description: Estrogen Receptor-Alpha (ERα) degradation assay in MCF-7 cells (western blot / In-Cell Western). The experiment is classed as cell-based. The note with it: for Dmax: MCF7, read-out: ER Dmax; for DC50: read-out: ER DC50. As to the method:
2. Estrogen Receptor-Alpha (ERα) Degradation Assay in MCF-7 Cells Using Western Blot Method for Table 5.
The exemplary novel ERα degraders were assessed for their activity in degrading ERα in MCF-7 cells via western blot. The assay was carried out in the presence of 10% FBS or high percentage of human or mouse serum. Protocols of the western blot assay are described below.
MCF7 cells were grown in DMEM/F12 with 10% FBS and seeded at 24,000 cells per well in 100 μl into 96-well clear tissue culture plates. The following day, the cells were treated with PROTACs in a […] concentration curve with 100 nM being the top concentration and serial dilutions to make the other concentrations (30 nM, 10 nM, 3 nM, 1 nM, and 0.3 nM). At all concentrations, 0.01% DMSO is the final concentration in the well. The following day, the plates are aspirated, washed with 50 μl of cold PBS. The cells are lysed with 50 μl/well 4° C. Cell Lysis Buffer (Catalog #9803; Cell Signaling Technology, Danvers, MA) (20 mM Tris-HCL (pH 7.5), 150 mM NaCl, 1 mM Na2EDTA, 1 mM EGTA, 1% Triton, 2.5 mM sodium pyrophosphate, 1 mM B-glycerophosphate, 1 mM sodium vanadate, 1 ug/ml leupeptin). Lysates were clarified at 16,000×g for 10 minutes, and 2 μg of protein was subjected to SDS-PAGE analysis and followed by immunoblotting according to standard protocols. The antibodies used were ERα (Cell Signaling Technologies Catalog #8644), and Tubulin (Sigma Catalog #T9026; St. Louis, MO). Detection reagents were Clarity Western ECL substrate (Bio-Rad Catalog #170-5060; Hercules, CA).
Alternatively, MCF7 cells were grown in DMEM/F12 with 10% FBS and seeded at 24,000 cells per well in 500 μl in 24-well clear tissue culture plates. The following day, the cells were treated with PROTACs in a 5-point concentration curve (100 nM, 33 nM, 11 nM, 3.7 nM, and 1.2 nM) in the presence of 0.01% DMSO. After 72 hours, the wells are aspirated and washed with 500 μl of PBS. The cells are lysed with 100 μl/well 4° C. Cell Lysis Buffer (Catalog #9803; Cell Signaling Technology, Danvers, MA) (20 mM Tris-HCL (pH 7.5), 150 mM NaCl, 1 mM Na2EDTA, 1 mM EGTA, 1% Triton, 2.5 mM sodium pyrophosphate, 1 mM B-glycerophosphate, 1 mM sodium vanadate, 1 ug/ml leupeptin). Lysates were clarified at 16,000×g for 10 minutes, and 2 μg of protein was subjected to SDS-PAGE analysis and followed by immunoblotting according to standard protocols. The antibodies used were ERα (Cell Signaling Technologies Catalog #8644), and Tubulin (Sigma Catalog #T9026; St. Louis, MO). Detection reagents were Clarity Western ECL substrate (Bio-Rad Catalog #170-5060; Hercules, CA).
3. Estrogen Receptor-Alpha (ERα) Degradation Assay Using In-Cell Western™ Assay for Table 5.
Degradation of ERα by claimed compounds were determined in MCF7 cells using an In-Cell Western™ assay. Briefly, MCF7 cells were plated in 96-well plates (2000 cells per well in 100 μl media) and incubated at 37° C. under an atmosphere of 5% CO2 in a humidified incubator overnight. One-hundred (100) μl of media containing test compound (at 2× concentration) was added to the appropriate wells to provide 11 serially decreasing concentrations (top final concentration, 1 μM then 3-fold less for the next 10 concentrations); a vehicle control (DMSO) was also added for each compound. For each experiment, all compounds were assayed in duplicate plates. Cells were then incubated for 3 or 5 days in the above-mentioned environment. The assay was terminated by removal of media, a single wash with ice-cold PBS and the addition of 50 μl paraformaldehyde (PFA: 4% in PBS). After 15 minutes in PFA at room temperature, the cells were permeabilized in Tris-phosphate-buffered saline with Tween (0.1%) (TBST) supplemented with Triton X-100 (0.5%) for 15 minutes. Cells were then blocked in BSA (TBST with BSA, 3%) for one hour. […]
For orientation: In western blotting, separated proteins are transferred to a membrane and probed.

Where two headings read alike, the source gives them in different places.

Turning to `COCCOc1c(N2CCN(CC3CCN(c4ccc([C@@H]5c6ccc(O)cc6CC[C@@H]5c5ccccc5)cc4)CC3)CC2)ccc2c1CN(C1CCC(=O)NC1=O)C2=O` (stereo partly drawn) [compound 11, 3-[5-[4-[[1-[4-[(1R,2S)-6-hydroxy-2-phenyl-tetralin-1-yl]phenyl]-4-piperidyl]methyl]piperazin-1-yl]-4-(2-methoxyethoxy)-1-oxo-isoindolin-2-yl]piperidine-2,6-dione], the IC50 in experiment [1] (Homo sapiens) is 2 nM. In addition, in experiment [2], the Dmax is 50 to 75% and the DC50 is 1 to 10 nM.
`COc1cc(N2CCN(CCCC(F)(F)COc3ccc([C@@H]4c5ccc(O)cc5CC[C@@H]4c4ccccc4)cc3)CC2)cc2c1C(=O)N(C1CCC(=O)NC1=O)C2` (stereo partly drawn) [compound 12, 3-[5-[4-[4,4-difluoro-5-[4-[(1R,2S)-6-hydroxy-2-phenyl-tetralin-1-yl]phenoxy]pentyl]piperazin-1-yl]-7-methoxy-1-oxo-isoindolin-2-yl]piperidine-2,6-dione]: the IC50 in experiment [1] (Homo sapiens) worked out at 1 nM. For the same compound, in experiment [2], the Dmax is at least 75% and the DC50 was below 1 nM.
Taken in the same sequence, the figures for `COc1cc(N2CCN(CCCCCOc3ccc([C@@H]4c5ccc(O)cc5CC[C@@H]4c4ccccc4)cc3)CC2)cc2c1C(=O)N([C@@H]1CCC(=O)NC1=O)C2` [compound 13, (3R)-3-[5-[4-[5-[4-[(1R,2S)-6-hydroxy-2-phenyl-tetralin-1-yl]phenoxy]pentyl]piperazin-1-yl]-7-methoxy-1-oxo-isoindolin-2-yl]piperidine-2,6-dione] were 0.37 nM, at least 75% and below 1 nM.
For `COc1cc(N2CCN(CCCCCOc3ccc([C@@H]4c5ccc(O)cc5CC[C@@H]4c4ccccc4)cc3)CC2)cc2c1C(=O)N([C@H]1CCC(=O)NC1=O)C2` [compound 14, (3S)-3-[5-[4-[5-[4-[(1R,2S)-6-hydroxy-2-phenyl-tetralin-1-yl]phenoxy]pentyl]piperazin-1-yl]-7-methoxy-1-oxo-isoindolin-2-yl]piperidine-2,6-dione], in that order: 0.49 nM, at least 75% and below 1 nM.
On to `COc1cc(N2CCN(CC3CCN(c4ccc([C@@H]5c6ccc(O)cc6CC[C@@H]5c5ccccc5)cc4)CC3)CC2)cc2c1C(=O)N(C1CCC(=O)NC1=O)C2` (stereo partly drawn) [compound 15, 3-[5-[4-[[1-[4-[(1R,2S)-6-hydroxy-2-phenyl-tetralin-1-yl]phenyl]-4-piperidyl]methyl]piperazin-1-yl]-7-methoxy-1-oxo-isoindolin-2-yl]piperidine-2,6-dione], for which the IC50 in experiment [1] (Homo sapiens) is 1.7 nM. Besides, in experiment [2], the Dmax was at least 75% and the DC50 was below 1 nM.
`COc1cc(N2CCN(C3CC4CC(Oc5ccc([C@@H]6c7ccc(O)cc7CC[C@@H]6c6ccc(F)cc6)cc5)CC4C3)CC2)cc2c1C(=O)N(C1CCC(=O)NC1=O)C2` (stereo partly drawn) [compound 16, 3-[5-[4-[5-[4-[(1R,2S)-2-(4-fluorophenyl)-6-hydroxy-tetralin-1-yl]phenoxy]-1,2,3,3a,4,5,6,6a-octahydropentalen-2-yl]piperazin-l-yl]-7-methoxy-1-oxo-isoindolin-2-yl]piperidine-2,6-dione]: in experiment [1], the IC50 was 0.82 nM. Moreover, in experiment [2], the “ER Dmax” value was “B (50 <= B < 75)” and the DC50 is below 1 nM.
In the case of `COc1cc(N2CCN(Cc3cccc(COc4ccc([C@@H]5c6ccc(O)cc6CC[C@@H]5c5ccccc5)cc4)n3)CC2)cc2c1C(=O)N(C1CCC(=O)NC1=O)C2` (stereo partly drawn) [compound 17, 3-[5-[4-[[6-[[4-[(1R,2S)-6-hydroxy-2-phenyl-tetralin-1-yl]phenoxy]methyl]-2-pyridyl]methyl]piperazin-1-yl]-7-methoxy-1-oxo-isoindolin-2-yl]piperidine-2,6-dione], in experiment [1] (Homo sapiens), the IC50 was 1.5 nM. Besides, in experiment [2], the Dmax was 50 to 75% and the DC50 fell in the range of 1 to 10 nM.
Taken in the same sequence, the figures for `COc1cc(N2CCN(CC3CCN(c4c(F)cc([C@H]5c6ccc(O)cc6CC[C@H]5c5ccccc5)cc4F)CC3)CC2)cc2c1C(=O)N(C1CCC(=O)NC1=O)C2` (stereo partly drawn) [compound 18, 3-(5-{4-[(1-{2,6-difluoro-4-[(1S,2R)-6-hydroxy-2-phenyl-1,2,3,4-tetrahydronaphthalen-1-yl]phenyl}piperidin-4-yl)methyl]piperazin-1-yl}-7-methoxy-1-oxo-2,3-dihydro-1H-isoindol-2-yl)piperidine-2,6-dione] were 17.5 nM, 50 to 75% and 1 to 10 nM.
For `COc1cc(N2CCN(CC3CCN(c4c(F)cc([C@@H]5c6ccc(O)cc6CC[C@@H]5c5ccccc5)cc4F)CC3)CC2)cc2c1C(=O)N(C1CCC(=O)NC1=O)C2` (stereo partly drawn) [compound 19, 3-(5-(4-((1-(2,6-difluoro-4-((1R,2S)-6-hydroxy-2-phenyl-1,2,3,4-tetrahydronaphthalen-1-yl)phenyl)piperidin-4-yl)methyl)piperazin-1-yl)-7-methoxy-1-oxoisoindolin-2-yl)piperidine-2,6-dione], in that order: 4.5 nM, at least 75% and 1 to 10 nM.
For `O=C1CCC(N2Cc3cc(N4CCN(CCCCCOc5ccc([C@@H]6c7ccc(O)cc7CC[C@@H]6c6ccccc6)cc5)CC4)cc(OC(F)F)c3C2=O)C(=O)N1` (stereo partly drawn) [compound 20, 3-[7-(difluoromethoxy)-5-[4-[5-[4-[(1R,2S)-6-hydroxy-2-phenyl-tetralin-1-yl]phenoxy]pentyl]piperazin-1-yl]-1-oxo-isoindolin-2-yl]piperidine-2,6-dione], in that order: 1.2 nM, 50 to 75% and 1 to 10 nM.

By IC50 is commonly meant the concentration that inhibits the measured activity by half. The term Dmax denotes the largest share of the target that was removed. What is called DC50 is the midpoint of the concentration-degradation curve.
